Data: ChEMBL document CHEMBL1255200, “Exploration of piperidine-4-yl-aminopyrimidines as HIV-1 reverse transcriptase inhibitors. N-Phenyl derivatives with broad potency against resistant mutant viruses” (Bioorg Med Chem Lett, 2010)

Experiments:
[1] = test system: Human immunodeficiency virus 1; test: Antiviral activity against wild type HIV1 infected in human MT4 cells assessed as reduction of virus-induced cytopathic effect by replication assay in presence of 40% human serum; assay type: functional, organism-based; conditions: Human immunodeficiency virus 1, MT4
[2] = Clearance in human liver microsomes; assay type: ADME, Microsome
[3] = test system: Human immunodeficiency virus 1; test: Selectivity ratio of IC50 for wild type HIV1 in presence of 40% human serum to IC50 for wild type HIV1 in presence of 10% FBS; assay type: functional
[4] = test system: Human immunodeficiency virus 1; test: Antiviral activity against HIV1 harboring reverse transcriptase K103N/Y181C double mutant infected in human MT4 cells assessed as reduction of virus-induced cytopathic effect by replication assay in presence of 10% FBS; assay type: functional, organism-based; conditions: Human immunodeficiency virus 1, MT4
[5] = test system: Human immunodeficiency virus 1; test: Antiviral activity against wild type HIV1 infected in human MT4 cells assessed as reduction of virus-induced cytopathic effect by replication assay in presence of 10% FBS; assay type: functional, organism-based; conditions: Human immunodeficiency virus 1, MT4
[6] = test system: Human immunodeficiency virus 1; test: Antiviral activity against HIV1 harboring reverse transcriptase Y188L mutant infected in human MT4 cells assessed as reduction of virus-induced cytopathic effect by replication assay in presence of 10% FBS; assay type: functional, organism-based; conditions: Human immunodeficiency virus 1, MT4
[7] = test system: Human immunodeficiency virus 1; test: Antiviral activity against HIV1 harboring reverse transcriptase V106A mutant infected in human MT4 cells assessed as reduction of virus-induced cytopathic effect by replication assay in presence of 10% FBS; assay type: functional, organism-based; conditions: Human immunodeficiency virus 1, MT4
[8] = test system: Human immunodeficiency virus 1; test: Antiviral activity against HIV1 harboring reverse transcriptase K103N/L100I double mutant infected in human MT4 cells assessed as reduction of virus-induced cytopathic effect by replication assay in presence of 10% FBS; assay type: functional, organism-based; conditions: Human immunodeficiency virus 1, MT4
[9] = molecular target: Human immunodeficiency virus type 1 reverse transcriptase (Human immunodeficiency virus 1, UniProt Q72547); test: Inhibition of HIV1 recombinant wild type reverse transcriptase by SPA heteropolymeric assay
[10] = molecular target: Human immunodeficiency virus type 1 reverse transcriptase (Human immunodeficiency virus 1, UniProt Q72547, K103N/Y181C); test: Inhibition of HIV1 recombinant reverse transcriptase K103N/Y181C double mutant by SPA heteropolymeric assay
[11] = molecular target: Human immunodeficiency virus type 1 reverse transcriptase (Human immunodeficiency virus 1, UniProt Q72547, Y188L); test: Inhibition of HIV1 recombinant reverse transcriptase Y188L mutant by SPA heteropolymeric assay

| SMILES | IC50 [1] [µM] | microsomal CLint [2] [µL/min/mg] | Ratio IC50 [3] | IC50 [4] [µM] | IC50 [5] [µM] | IC50 [6] [µM] | IC50 [7] [µM] | IC50 [8] [µM] | IC50 [9] [µM] | IC50 [10] [µM] | IC50 [11] [µM] |
| --- | --- | --- | --- | --- | --- | --- | --- | --- | --- | --- | --- |
| Cc1cc(C#N)cc(C)c1Oc1nc(NC2CCN(Cc3ccc(S(N)(=O)=O)cc3Cl)CC2)ncc1Br | 0.0487 | 151 | 8 | 0.0073 | 0.0061 | 0.0028 | 0.002 | 0.0059 |  |  |  |
| Cc1cc(C#N)cc(C)c1Oc1ccnc(NC2CCN(c3ccc(S(N)(=O)=O)cc3)CC2)n1 |  |  |  |  |  |  |  |  | 0.024 | > 1 | > 1 |
| Cc1cc(C#N)cc(Cl)c1Nc1ccnc(NC2CCN(c3cccc(C(N)=O)c3)CC2)n1 |  |  |  |  |  |  |  |  | 0.036 | 0.036 |  |
| Cc1cc(C#N)cc(C)c1Oc1nc(NC2CCN(c3cccc(C#N)c3)CC2)ncc1Br |  |  |  |  |  |  |  |  | 0.103 | 0.352 |  |
| Cc1cc(C#N)cc(C)c1Oc1ccnc(NC2CCN(c3cccc(C#N)c3)CC2)n1 |  |  |  |  |  |  |  |  | 0.051 | 0.772 |  |
| Cc1cc(C#N)cc(C)c1Oc1nc(NC2CCN(c3cccc(C(=O)O)c3)CC2)ncc1Br |  |  |  |  |  |  |  |  | 0.016 | > 1 |  |
| Cc1cc(C#N)cc(C)c1Oc1ccnc(NC2CCN(c3ccc(Cl)c(C(N)=O)c3)CC2)n1 |  |  |  |  |  |  |  |  | 0.009 | 0.192 |  |
| Cc1cc(C#N)cc(C)c1Oc1ccnc(NC2CCN(c3cc(Cl)cc(C(N)=O)c3)CC2)n1 |  |  |  |  |  |  |  |  | 0.028 | 0.265 |  |
| Cc1cc(C#N)cc(C)c1Oc1nc(NC2CCN(c3cc(C(N)=O)ccc3Cl)CC2)ncc1Br |  |  |  |  |  |  |  |  | 0.076 | > 1 | 0.874 |
| Cc1cc(C#N)cc(C)c1Oc1nc(NC2CCN(c3cccc(C(N)=O)c3)CC2)ncc1Cl |  |  |  |  |  |  |  |  | 0.024 | 0.013 | 0.203 |
| Cc1cc(C#N)cc(C)c1Oc1nc(NC2CCN(c3cccc(C(N)=O)c3)CC2)ncc1F |  |  |  |  |  |  |  |  | 0.014 | 0.014 | 0.035 |
| Cc1cnc(NC2CCN(c3cccc(C(N)=O)c3)CC2)nc1Oc1c(C)cc(C#N)cc1C | 0.0045 | 730 | 4 | 0.0038 | 0.0011 | < 0.0012 | 0.0006 | 0.0067 | 0.012 | 0.015 |  |
| Cc1cc(C#N)cc(C)c1Oc1nc(NC2CCN(c3cccc(C(N)=O)c3)CC2)ncc1C(F)(F)F |  |  |  |  |  |  |  |  | 0.086 | 0.041 |  |
| Cc1cc(C#N)cc(C)c1Oc1nc(NC2CCN(c3cccc(C(N)=O)c3)CC2)ncc1N |  |  |  |  |  |  |  |  | 0.019 | 0.017 | 0.118 |
| Cc1cc(C#N)cc(C)c1Oc1nc(NC2CCN(c3cccc(C(N)=O)c3)CC2)ncc1[N+](=O)[O-] |  |  |  |  |  |  |  |  | 0.109 | 0.064 |  |
| Cc1cc(C#N)cc(Cl)c1Oc1ccnc(NC2CCN(c3cccc(C(N)=O)c3)CC2)n1 | 0.0075 | 274 | 17.4 | 0.0053 | 0.0004 | 0.0016 |  | 0.042 | 0.008 | 0.008 |  |
| Cc1cc(C#N)cc(Cl)c1Oc1nc(NC2CCN(c3cccc(C(N)=O)c3)CC2)ncc1Br |  |  |  |  |  |  |  |  | 0.028 | 0.028 | 0.413 |
| Cc1cc(C#N)cc(Cl)c1Oc1nc(NC2CCN(c3cccc(C(N)=O)c3)CC2)ncc1Cl |  |  |  |  |  |  |  |  | 0.02 | 0.02 | 0.048 |
| Cc1cnc(NC2CCN(c3cccc(C(N)=O)c3)CC2)nc1Oc1c(C)cc(C#N)cc1Cl | 0.0142 | 580 | 8.6 | 0.0055 | 0.0016 | 0.0014 | 0.0007 | 0.0074 | 0.006 | 0.006 |  |

| SMILES | IC50 [1] [µM] | microsomal CLint [2] [µL/min/mg] | Ratio IC50 [3] | IC50 [4] [µM] | IC50 [5] [µM] | IC50 [6] [µM] | IC50 [7] [µM] | IC50 [8] [µM] | IC50 [9] [µM] | IC50 [10] [µM] | IC50 [11] [µM] |
| --- | --- | --- | --- | --- | --- | --- | --- | --- | --- | --- | --- |
| COc1cc(C#N)cc(C)c1Oc1ccnc(NC2CCN(c3cccc(C(N)=O)c3)CC2)n1 |  |  |  |  |  |  |  |  | 0.018 | 0.018 | 0.064 |
| COc1cc(C#N)cc(C)c1Oc1nc(NC2CCN(c3cccc(C(N)=O)c3)CC2)ncc1Br |  |  |  |  |  |  |  |  | 0.056 | 0.056 |  |
| COc1cc(C#N)cc(C)c1Oc1nc(NC2CCN(c3cccc(C(N)=O)c3)CC2)ncc1Cl |  |  |  |  |  |  |  |  | 0.019 | 0.019 | 0.101 |
| COc1cc(C#N)cc(C)c1Oc1nc(NC2CCN(c3cccc(C(N)=O)c3)CC2)ncc1C |  |  |  |  |  |  |  |  | 0.021 | 0.021 | 0.066 |
| Cc1cc(C#N)cc(F)c1Oc1nc(NC2CCN(c3cccc(C(N)=O)c3)CC2)ncc1Br | 0.0182 | 82 | 2.5 | 0.028 | 0.0073 | 0.0055 | 0.0039 | 0.0184 | 0.006 | 0.006 | 0.029 |
| Cc1cc(C#N)cc(C)c1Nc1ccnc(NC2CCN(c3cccc(C(N)=O)c3)CC2)n1 | 0.0139 | 31 | 27.1 | 0.0152 | 0.0005 | 0.0037 | 0.0008 | > 0.1 | 0.023 | 0.023 |  |
| Cc1cc(C#N)cc(C)c1Nc1nc(NC2CCN(c3cccc(C(N)=O)c3)CC2)ncc1Br | 0.0142 | 42 | 9.8 | 0.0117 | 0.0015 | 0.0027 | 0.0009 | 0.0108 | 0.019 | 0.019 | 0.075 |
| Cc1cc(C#N)cc(C)c1Oc1nc(NC2CCN(c3cccc(S(N)(=O)=O)c3)CC2)ncc1Br |  |  |  |  |  |  |  |  | 0.019 | 0.072 | 0.105 |
| Cc1cc(C#N)cc(C)c1Oc1ccnc(NC2CCN(c3cccc(S(N)(=O)=O)c3)CC2)n1 |  |  |  |  |  |  |  |  | 0.015 | 0.622 | 0.194 |
| Cc1cc(C#N)cc(Cl)c1Nc1nc(NC2CCN(c3cccc(C(N)=O)c3)CC2)ncc1Br | 0.0099 | 418 | 8.6 | 0.0049 | 0.0012 | < 0.0012 | 0.0005 | 0.0029 | 0.015 | 0.015 | 0.042 |
| Cc1cc(C#N)cc(C)c1Oc1nc(NC2CCN(c3ccccc3C(N)=O)CC2)ncc1Br |  |  |  |  |  |  |  |  | 0.032 | 0.967 |  |
| Cc1cc(C#N)cc(C)c1Oc1nc(NC2CCN(c3cccc(C(N)=O)c3)CC2)ncc1Br |  |  |  |  |  |  |  |  | 0.019 | 0.03 | 0.07 |
| Cc1cc(C#N)cc(C)c1Oc1ccnc(NC2CCN(c3cccc(C(N)=O)c3)CC2)n1 |  |  |  |  |  |  |  |  | 0.007 | 0.016 | 0.034 |
| Cc1cc(C#N)cc(C)c1Oc1nc(NC2CCN(c3ccc(C(N)=O)cc3)CC2)ncc1Br |  |  |  |  |  |  |  |  | 0.024 | > 1 |  |
| Cc1cc(C#N)cc(C)c1Oc1nc(NC2CCN(c3cccc(S(C)(=O)=O)c3)CC2)ncc1Br |  |  |  |  |  |  |  |  | 0.042 | 0.1 | 0.831 |
| Cc1cc(C#N)cc(C)c1Oc1ccnc(NC2CCN(c3cccc(S(C)(=O)=O)c3)CC2)n1 |  |  |  |  |  |  |  |  | 0.011 | 0.238 |  |
| O=C1Nc2ccc(Cl)cc2[C@@](C#CC2CC2)(C(F)(F)F)O1 [EFAVIRENZ] |  |  |  | 0.0828 |  | > 0.1 |  | > 0.1 |  |  |  |
| Cc1cc(C#N)cc(C)c1Oc1nc(Nc2ccc(C#N)cc2)nc(N)c1Br [ETRAVIRINE] |  | 29 |  | 0.0092 |  |  |  |  |  |  |  |
